34 compounds from patent publication US20100004459A1, “2-PHENYLNICOTINIC ACID DERIVATIVE” (NIPPON ZOKI PHARMACEUTICAL CO., LTD., priority 2006, published 2010) can be followed below.

For one series, the target named is T1, xanthine oxidase (Bos taurus, UniProt P80457).
T1 construct: derived from milk; manufactured by Sigma; purchased Sigma; host or cells: milk (natural source)
The experiment in a line: Test for xanthine oxidase inhibitory activity. The series is classed as biochemical. The following applies: xanthine oxidase derived from milk (Sigma); substrate xanthine; uric acid production at OD 292 nm, 37° C. As to the method: Evaluation of inhibitory activity of the present invention to xanthine oxidase was conducted using xanthine as a substrate by measuring the amount of uric acid produced by xanthine oxidase which is an oxidizing enzyme therefor. Thus, xanthine oxidase (0.01 unit/L, 20 μL/well; derived from milk; manufactured by Sigma), diethylenetriamine pentaacetate (0.01 mol/L, 20 μL/well), phosphate buffer (20 μL/well), distilled water (100 μL/well) and a diluted solution (20 μL/well) of a test substance were mixed in a 96-well quartz microplate. After preincubating for 5 minutes in a microplate spectrophotometer warmed at 37° C., xanthine (1 mmol/L, 20 μL/well) was added. The changes with elapse of time in OD 292 nm based on the production of uric acid was measured using a microplate spectrophotometer warmed at 37° C. whereby the initial reaction velocity was measured. Xanthine oxidase inhibitory activity was calculated by the following formula and concentration of the test substance for 50% suppression (IC50 value) was calculated.
Inhibition Rate(%)={[(Initial Reaction Velocity of the Reaction Control)-(Initial Reaction Velocity upon Addition of Test Substance)]/[Initial Reaction Velocity of the Reaction Control]}×100

As usually defined, the melting point is the temperature, or range, at which the solid turns liquid. Usually IC50 stands for the concentration that inhibits the measured activity by half. A higher IC50 goes with weaker potency.

T1 sequence (P80457 whole entry): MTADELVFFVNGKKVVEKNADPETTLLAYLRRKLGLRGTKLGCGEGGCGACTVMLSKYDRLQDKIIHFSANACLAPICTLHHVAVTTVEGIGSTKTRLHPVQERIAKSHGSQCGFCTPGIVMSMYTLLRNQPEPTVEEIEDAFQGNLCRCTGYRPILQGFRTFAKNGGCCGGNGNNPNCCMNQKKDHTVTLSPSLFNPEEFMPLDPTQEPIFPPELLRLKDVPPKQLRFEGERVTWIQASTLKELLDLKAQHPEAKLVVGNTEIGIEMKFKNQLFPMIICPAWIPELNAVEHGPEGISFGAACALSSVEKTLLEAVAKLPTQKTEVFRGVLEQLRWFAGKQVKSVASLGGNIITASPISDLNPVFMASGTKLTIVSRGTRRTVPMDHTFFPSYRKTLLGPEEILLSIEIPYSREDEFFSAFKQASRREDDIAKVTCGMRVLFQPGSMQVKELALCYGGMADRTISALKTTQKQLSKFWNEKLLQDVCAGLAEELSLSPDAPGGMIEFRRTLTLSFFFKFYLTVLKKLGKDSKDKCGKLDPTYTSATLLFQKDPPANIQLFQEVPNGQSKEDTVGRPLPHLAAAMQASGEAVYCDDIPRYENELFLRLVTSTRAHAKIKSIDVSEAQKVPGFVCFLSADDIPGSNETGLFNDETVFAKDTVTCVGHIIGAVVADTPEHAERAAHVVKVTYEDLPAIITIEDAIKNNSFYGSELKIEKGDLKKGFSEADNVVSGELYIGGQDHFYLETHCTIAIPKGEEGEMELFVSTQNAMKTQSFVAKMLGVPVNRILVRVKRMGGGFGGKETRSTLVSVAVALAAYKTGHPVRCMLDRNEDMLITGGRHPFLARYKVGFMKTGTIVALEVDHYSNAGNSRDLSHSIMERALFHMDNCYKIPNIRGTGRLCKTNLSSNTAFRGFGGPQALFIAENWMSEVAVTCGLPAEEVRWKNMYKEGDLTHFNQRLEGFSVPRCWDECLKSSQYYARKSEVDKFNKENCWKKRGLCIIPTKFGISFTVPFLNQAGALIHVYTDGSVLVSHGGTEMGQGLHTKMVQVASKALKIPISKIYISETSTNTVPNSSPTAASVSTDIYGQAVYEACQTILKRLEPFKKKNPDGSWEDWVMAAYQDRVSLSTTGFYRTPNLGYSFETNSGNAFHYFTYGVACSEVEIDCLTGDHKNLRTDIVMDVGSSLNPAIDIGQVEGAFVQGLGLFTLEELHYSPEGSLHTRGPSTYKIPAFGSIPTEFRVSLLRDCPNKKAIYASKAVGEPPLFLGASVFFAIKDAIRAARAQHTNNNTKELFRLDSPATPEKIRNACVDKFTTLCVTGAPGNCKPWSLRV

On to `COc1ccc(-c2ncccc2C(=O)O)cc1C#N` [Example 43, 2-(3-Cyano-4-methoxyphenyl)nicotinic acid], for which the melting point was 254 to 255 °C.
As for `CC(C)COc1ccc(-c2ncccc2C(=O)O)cc1C#N` [Example 44, 2-(3-Cyano-4-isobutoxyphenyl)nicotinic acid], the melting point fell in the range of 178 to 179 °C. At xanthine oxidase, this compound came in with an IC50 of 91 nM.
Take `N#Cc1cc(-c2ncccc2C(=O)O)ccc1OCC1CC1` [Example 45, 2-(3-Cyano-4-cyclopropylmethoxyphenyl)nicotinic acid]: the melting point is 203 to 204 °C.
`N#Cc1cc(-c2ncccc2C(=O)O)ccc1OCC1CCC1` [Example 46, 2-(3-Cyano-4-cyclobutylmethoxyphenyl)nicotinic acid] came in with a melting point of 204 to 205 °C. Moreover, the IC50 against xanthine oxidase turned out to be 83 nM.
`N#Cc1cc(-c2ncccc2C(=O)O)ccc1OCCC1CCCCC1` [Example 48, 2-[3-Cyano-4-(2-cyclohexylethoxy)phenyl]nicotinic acid] gave a melting point of 171 to 172 °C. At xanthine oxidase, this compound came in with an IC50 of 38 nM.
For `CCCCCCOc1ccc(-c2ncccc2C(=O)O)cc1C#N` [Example 49, 2-(3-Cyano-4-hexyloxyphenyl)nicotinic acid] the same measures were 187 to 188 °C and 63 nM.
For `N#Cc1cc(-c2ncccc2C(=O)O)ccc1OCc1ccc(C(F)(F)F)cc1` [Example 50, 2-[3-Cyano-4-(4-trifluoromethylbenzyloxy)phenyl]nicotinic acid] the same measures were 226 to 227 °C and 83 nM.
`COc1ccc(CCOc2ccc(-c3ncccc3C(=O)O)cc2C#N)cc1` [Example 53, 2-[3-Cyano-4-(4-methoxyphenethyloxy)phenyl]nicotinic acid] displayed a melting point of 183 to 184 °C. On xanthine oxidase, this compound returned an IC50 of 58 nM.
The like results for `N#Cc1cc(-c2ncccc2C(=O)O)ccc1OCCCc1ccccc1F` [Example 60, 2-{3-Cyano-4-[3-(2-fluorophenyl)propoxy]phenyl}nicotinic acid] were, in that order, 173 to 174 °C and 49 nM.
`N#Cc1cc(-c2ncccc2C(=O)O)ccc1OCCCc1ccc(F)cc1` [Example 61, 2-{3-Cyano-4-[3-(4-fluorophenyl)propoxy]phenyl}nicotinic acid] displayed a melting point of 177 to 178 °C. This compound registered an IC50 against xanthine oxidase of 56 nM.
For `N#Cc1cc(-c2ncccc2C(=O)O)ccc1OCCCCc1ccc(C(F)(F)F)cc1` [Example 63, 2-{3-Cyano-4-[4-(4-trifluoromethylphenyl)butoxy]phenyl}nicotinic acid] the same measures were 165 to 166 °C and 97 nM.
The like results for `N#Cc1cc(-c2ncccc2C(=O)O)ccc1OCCCCc1ccccc1F` [Example 64, 2-{3-Cyano-4-[4-(2-fluorophenyl)butoxy]phenyl}nicotinic acid] were, in that order, 151 to 152 °C and 33 nM.
As for `N#Cc1cc(-c2ncccc2C(=O)O)ccc1OCCCOc1ccc(OC(F)(F)F)cc1Cl` [Example 69, 2-{4-[3-(2-Chloro-4-trifluoromethoxyphenoxy)propoxy]-3-cyanophenyl}nicotinic acid], the melting point is 159 to 160 °C. Besides, on xanthine oxidase, the half-inhibitory concentration (IC50) is 58 nM.
For `N#Cc1cc(-c2ncccc2C(=O)O)ccc1OCCCOc1ccc(Oc2ccccc2)cc1` [Example 71, 2-{3-Cyano-4-[3-(4-phenoxyphenoxy)propoxy]phenyl}nicotinic acid] the same measures were 149 to 150 °C and 90 nM.
For `CCCCC(C)(C)COc1ccc(-c2ncccc2C(=O)O)cc1C#N` [Example 73, 2-[3-Cyano-4-(2,2-dimethylhexyloxy)phenyl]nicotinic acid] the same measures were 155 to 156 °C and 21 nM.
The like results for `CCC1(COc2ccc(-c3ncccc3C(=O)O)cc2C#N)CCCC1` [Example 76, 2-[3-Cyano-4-(1-ethylcyclopentylmethoxy)phenyl]nicotinic acid] were, in that order, 196 to 197 °C and 17 nM.
For the compound `CC(C)(COc1ccc(-c2ncccc2C(=O)O)cc1C#N)Cc1ccccc1` [Example 80, 2-[3-Cyano-4-(2,2-dimethyl-3-phenylpropoxy)phenyl]nicotinic acid], the melting point fell in the range of 196 to 197 °C. The same compound showed a concentration for half-maximal inhibition (IC50) on xanthine oxidase of 38 nM.
For `CC(C)(CCc1ccccc1)COc1ccc(-c2ncccc2C(=O)O)cc1C#N` [Example 81, 2-[3-Cyano-4-(2,2-dimethyl-4-phenylbutoxy)phenyl]nicotinic acid] the same measures were 172 to 173 °C and 16 nM.
As for `CS(=O)(=O)Oc1ccc(CCOc2ccc(-c3ncccc3C(=O)O)cc2C#N)cc1` [Example 86, 2-{3-Cyano-4-[2-(4-methanesulfonyloxyphenyl)ethoxy]phenyl}nicotinic acid], the 50% inhibitory concentration (IC50) on xanthine oxidase was found to be 99 nM.
For `CC(C)(C)c1cc(CCCOc2ccc(-c3ncccc3C(=O)O)cc2C#N)cc(C(C)(C)C)c1O` [Example 88], on xanthine oxidase, the IC50 amounted to 47 nM. This IC50 lies about 2.1-fold lower than the previous one.
Still for that read-out and setting: with `CC(C)(C)c1cc(CCCCOc2ccc(-c3ncccc3C(=O)O)cc2C#N)cc(C(C)(C)C)c1O` [Example 90, 2-{3-Cyano-4-[4-(3,5-di-tert-butyl-4-hydroxyphenyl)butoxy]phenyl}nicotinic acid] the figure was 37 nM; with `COc1ccc(CC(C)(C)COc2ccc(-c3ncccc3C(=O)O)cc2C#N)cc1` [Example 104, 2-{3-Cyano-4-[2,2-dimethyl-3-(4-methoxyphenyl)propoxy]phenyl}nicotinic acid], 13 nM.
Still for that read-out and setting: under `CC(C)(COc1ccc(-c2ncccc2C(=O)O)cc1C#N)Cc1ccc(C(F)(F)F)cc1` [Example 106, 2-{3-Cyano-4-[2,2-dimethyl-3-(4-trifluoromethylphenyl)propoxy]phenyl}nicotinic acid] stands 25 nM; under `COc1ccccc1CC(C)(C)COc1ccc(-c2ncccc2C(=O)O)cc1C#N` [Example 112, 2-{3-Cyano-4-[2,2-dimethyl-3-(2-methoxyphenyl)propoxy]phenyl}nicotinic acid], 28 nM.
Same read-out and setting: with `N#Cc1cc(-c2ncccc2C(=O)O)ccc1OCCCc1ccccc1` [Example 116, 2-[3-Cyano-4-(3-phenylpropoxy)phenyl]nicotinic acid] the figure was 52 nM.
As for `N#Cc1cc(-c2ncccc2C(=O)O)ccc1OCCCc1ccccc1C(F)(F)F` [Example 118, 2-{3-Cyano-4-[3-(2-trifluoromethylphenyl)propoxy]phenyl}nicotinic acid], on xanthine oxidase, the half-inhibitory concentration (IC50) came out at 12 nM.
On the same count and under the same terms, under `COc1ccc(CCCOc2ccc(-c3ncccc3C(=O)O)cc2C#N)cc1` [Example 120, 2-{3-Cyano-4-[3-(4-methoxyphenyl)propoxy]phenyl}nicotinic acid] stands 35 nM; under `COc1ccc(C(C)(C)COc2ccc(-c3ncccc3C(=O)O)cc2C#N)cc1` [Example 122, 2-{3-Cyano-4-[2-methyl-2-(4-methoxyphenyl)propoxy]phenyl}nicotinic acid], 91 nM.
As to `N#Cc1cc(-c2ncccc2C(=O)O)ccc1OCCCCc1ccccc1C(F)(F)F` [Example 126, 2-{3-Cyano-4-[4-(2-trifluoromethylphenyl)butoxy]phenyl}nicotinic acid], half-maximal inhibition on xanthine oxidase (IC50) required 26 nM. Compared with the last compound, the IC50 is about 3.5-fold lower.
The same measure, in the same setting: with `Cc1ccc(C)c(CCOc2ccc(-c3ncccc3C(=O)O)cc2C#N)c1` [Example 130, 2-[3-Cyano-4-(2,5-dimethylphenethyloxy)phenyl]nicotinic acid] the figure was 72 nM; with `CC(C)(COc1ccc(-c2ncccc2C(=O)O)cc1C#N)Cc1ccccc1C(F)(F)F` [Example 132, 2-{3-Cyano-4-[2,2-dimethyl-3-(2-trifluoromethylphenyl)propoxy]phenyl}nicotinic acid], 15 nM.
On the same count and under the same terms, under `COc1ccc(CCCCOc2ccc(-c3ncccc3C(=O)O)cc2C#N)cc1` [Example 134, 2-{3-Cyano-4-[4-(4-methoxyphenyl)butoxy]phenyl}nicotinic acid] stands 18 nM.
Still for that read-out and setting: with `N#Cc1cc(-c2ncccc2C(=O)O)ccc1N1CCCCCC1` [Example 138, 2-(4-Azepan-1-yl-3-cyanophenyl)nicotinic acid] the figure was 34 nM; with `CC(C)(C)COc1ccc(-c2ncc(F)cc2C(=O)O)cc1C#N` [Example 140, 2-[3-Cyano-4-(2,2-dimethylpropoxy)phenyl]-5-fluoronicotinic acid], 40 nM.
